Data from publication PMC8070189, “Native Structure-Based Peptides as Potential Protein–Protein Interaction Inhibitors of SARS-CoV-2 Spike Protein and Human ACE2 Receptor” (Molecules, 2021).

Target: RBD domain of SARS-CoV-2 protein (Severe acute respiratory syndrome coronavirus 2, UniProt P0DTC2)
Assay type: binding

## MYEEFKAED
  binding affinity to RBD of S protein, in words: extremely weak binder
